Results published in US7160905B2, “Hydroxyethylene compounds with Asp2 inhibitory activity” (SmithKline Beecham p.l.c., priority 2001, dated 2007).
Where two headings read alike, the source gives them in different places.

Experiments:
Format in all cases: biochemical
Asp-2 = Asp-2 (Homo sapiens, UniProt P56817); test: Asp-2 inhibitory assay (FAM-[SEVNLDAEFK]-TAMRA fluorescence); conditions: Assay (I), 1 h at room temperature, pH 4.5
Protocol: (I) Asp-2 Inhibitory Assay
For each compound being assayed, in a 384 well plate, is added:— • a) 1 μl of a DMSO solution of the test compound (IC50 curve uses ten 1 in 2 serial dilutions from 500 μM) • b) 10 μl of substrate (FAM-[SEVNLDAEFK]-TAMRA) solution in buffer. This is prepared by diluting 2 ml of a 2 mM DMSO solution of the substrate into 400 ml of buffer (100 mM Sodium acetate pH=4.5, 1 l Milli-Q water, 0.06% Triton X-100 (0.5 ml/l), pH adjusted to 4.5 using glacial acetic acid). Aminomethyl fluorescein (FAM) and tetramethyl rhodamine (TAMRA) are fluorescent molecules which co-operate to emit fluorescence at 535 nm upon cleavage of the SEVNLDAEFK peptide. • c) 10 μl enzyme solution. This is prepared by diluting 16 ml of a 500 nM enzyme solution into 384 ml of buffer (prepared as above).
(§1) Blank wells (enzyme solution replaced by buffer) are included as controls on each plate. Wells are incubated for 1 h at room temperature and fluorescence read using a Tecan Ultra Fluorimeter/Spectrophotometer (485 nm excitation, 535 nm emission).

Asp-1 = target: T1, Asp-1 (Homo sapiens, UniProt Q9Y5Z0); test: Asp-1 inhibitory assay (FAM-[SEVNLDAEFK]-TAMRA fluorescence); conditions: Assay (II), 2 h at room temperature, pH 4.5
T1 sequence (Q9Y5Z0 63-518): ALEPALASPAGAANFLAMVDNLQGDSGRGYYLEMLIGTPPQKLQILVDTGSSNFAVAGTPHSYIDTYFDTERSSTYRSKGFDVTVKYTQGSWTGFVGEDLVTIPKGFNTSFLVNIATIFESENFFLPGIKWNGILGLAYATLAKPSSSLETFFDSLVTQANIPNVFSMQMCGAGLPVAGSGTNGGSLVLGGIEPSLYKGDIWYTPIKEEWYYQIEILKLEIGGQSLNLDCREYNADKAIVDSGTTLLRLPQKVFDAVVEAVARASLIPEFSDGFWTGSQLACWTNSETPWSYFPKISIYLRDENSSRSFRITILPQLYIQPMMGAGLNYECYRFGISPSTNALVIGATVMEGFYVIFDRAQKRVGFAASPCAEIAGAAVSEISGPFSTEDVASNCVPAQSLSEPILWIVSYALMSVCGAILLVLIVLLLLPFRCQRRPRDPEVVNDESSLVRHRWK
Protocol: (II) Asps-1 Inhibitory Assay
(§2) For each compound being assayed, in a 384 well plate, is added:— • a) 1 μl of a DMSO solution of the test compound (IC50 curve uses ten 1 in 2 serial dilutions from 500 μM). • b) 10 μl of substrate (FAM-[SEVNLDAEFK]-TAMRA) solution in buffer. This is prepared by diluting 2 ml of a 2 mM DMSO solution of the substrate into 400 ml of buffer (100 mM Sodium acetate pH=4.5, 1 l Milli-Q water, 0.06% Triton X-100 (0.5 ml/l), pH adjusted to 4.5 using glacial acetic acid). • c) 10 μl enzyme solution. This is prepared by diluting 4 ml of a 6.3 μM enzyme solution into 496 ml of buffer (100 mM Sodium acetate pH=4.5, 40 mM sodium chloride, 900 ml Milli-Q water, 100 ml glycerol, 0.2% CHAPS (2 g/l), pH adjusted to 4.5 using glacial acetic acid).
Blank wells (enzyme solution replaced by buffer) are included as controls on each plate. Wells are incubated for 2 h at room temperature and fluorescence read using a Tecan Ultra Fluorimeter/Spectrophotometer (485 nm excitation, 535 nm emission).

Cathepsin D = Cathepsin D (Homo sapiens, UniProt P07339); test: Cathepsin D inhibitory assay (FAM-[SEVNLDAEFK]-TAMRA fluorescence); conditions: Assay (III), 1 h at room temperature, pH 4.5; read-out: inhibition (CatD)
Protocol: (III) Cathepsin D Inhibitory Assay
as §2, with “diluting 1.6” for “diluting 4”, “a 200 unit/ml (in 10 mM HCl)” for “a 6.3 μM”, “into 398.4” for “into 496”, “buffer (prepared as above).” for “buffer (100 mM Sodium acetate pH=4.5, 40 mM sodium chloride, 900 ml Milli-Q water, 100 ml glycerol, 0.2% CHAPS (2 g/l), pH adjusted to 4.5 using glacial acetic acid).”
as §1

Sequence of Asp-2 (P56817 46-501): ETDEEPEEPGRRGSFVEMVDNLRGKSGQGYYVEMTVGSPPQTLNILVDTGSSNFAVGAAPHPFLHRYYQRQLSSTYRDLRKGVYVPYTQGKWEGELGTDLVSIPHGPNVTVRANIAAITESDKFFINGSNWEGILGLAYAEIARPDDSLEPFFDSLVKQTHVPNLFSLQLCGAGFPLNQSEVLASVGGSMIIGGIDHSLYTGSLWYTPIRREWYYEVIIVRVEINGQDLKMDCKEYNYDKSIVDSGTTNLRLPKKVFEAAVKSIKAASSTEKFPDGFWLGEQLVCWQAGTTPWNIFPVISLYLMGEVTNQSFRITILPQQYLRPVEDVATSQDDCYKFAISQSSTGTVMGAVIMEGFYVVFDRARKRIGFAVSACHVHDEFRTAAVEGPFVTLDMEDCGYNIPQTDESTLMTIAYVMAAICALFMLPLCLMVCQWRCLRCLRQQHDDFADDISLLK
Sequence of Cathepsin D (P07339 65-412, species assumed): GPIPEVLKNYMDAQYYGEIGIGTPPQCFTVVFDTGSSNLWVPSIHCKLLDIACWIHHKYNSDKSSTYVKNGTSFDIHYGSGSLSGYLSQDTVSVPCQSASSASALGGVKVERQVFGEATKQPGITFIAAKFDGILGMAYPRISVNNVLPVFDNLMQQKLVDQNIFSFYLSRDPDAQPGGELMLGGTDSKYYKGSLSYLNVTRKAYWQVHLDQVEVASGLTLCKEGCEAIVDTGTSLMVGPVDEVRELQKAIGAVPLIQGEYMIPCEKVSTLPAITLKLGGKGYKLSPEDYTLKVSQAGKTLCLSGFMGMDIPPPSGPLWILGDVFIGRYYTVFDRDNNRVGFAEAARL

IC50 (Asp-2; read-out: Asp-2 IC50) [µM]	IC50 (Asp-1; read-out: Asp-1 IC50) [µM]	IC50 (Cathepsin D) [µM]	IC50 (Asp-2; read-out: inhibition (Asp-2)) [µM]	IC50 (Asp-1; read-out: inhibition (Asp-1)) [µM]	SMILES
0.4	7.7				C[C@H](C[C@H](O)[C@H](Cc1ccccc1)NC(=O)c1cccc(S(C)(=O)=O)c1)C(=O)NCCC(C)(C)C [Example E1, N-[(1S,2S,4R)-1-Benzyl-4-(3,3-dimethylbutylcarbamoyl)-2-hydroxypentyl]-3-methanesulfonyl-benzamide]
0.33	5.57				C#CC[C@H](C[C@H](O)[C@H](Cc1ccccc1)NC(=O)c1cccc(S(C)(=O)=O)c1)C(=O)NC1CC2CCC1C2 (stereo partly shown) [Example E2]
		9.6	0.18	3.3	C[C@H](C[C@H](O)[C@H](Cc1ccccc1)NC(=O)c1ccc(S(C)(=O)=O)s1)C(=O)NCCC(C)(C)C [Example E9, 5-Methanesulfonyl-thiophene-2-carboxylic acid [(1S,2S,4R)-1-benzyl-4-(3,3-dimethyl-butylcarbamoyl)-2-hydroxypentyl]-amide]
